From PubChem BioAssay AID2060328 (Molecular Pharmacology Branch, DTP, NCI, 2025)

Tested on: MDA-MB-231 multicell spheroids, viability (%T/C)
Experiment: Anticancer human tumor MDA-MB-231 cell line growth inhibition [IpAb];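 note: viability read after seven days of drug exposure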;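 for viability, T/C: 100% = DMSO vehicle control viability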
Settings: for IC50: curve of first compound; for viability, T/C: stronger effect = lower value
In short: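 Combinations with ipatasertib or abemaciclib were tested on tumour spheroids holding HUVEC (25%) and MSC (15%) alongside 60% malignant cells. Top concentration was at or near clinical Cmax (10 microM if undefined), descending in half-log steps.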

[1] = second compound 0.01 µM, first compound 0.0316 µM
[2] = second compound 0.01 µM, first compound 0.1 µM
[3] = second compound 0.0316 µM, first compound 0.0316 µM
[4] = second compound 0.0316 µM, first compound 0.1 µM
[5] = second compound 0.1 µM, first compound 0.0316 µM
[6] = second compound 0.1 µM, first compound 0.1 µM
[7] = second compound 0.316 µM, first compound 0.0316 µM
[8] = second compound 0.316 µM, first compound 0.1 µM
[9] = second compound 1 µM, first compound 0.0316 µM
[10] = second compound 1 µM, first compound 0.1 µM

Q: Which IC50 (second compound 0.01 µM) does the source give for `Cn1ncc(Cl)c1-c1cc(C(=O)NC(CN)Cc2cccc(F)c2)sc1Cl` (stereo not given) + CCN1CCN(Cc2ccc(Nc3ncc(F)c(-c4cc(F)c5nc(C)n(C(C)C)c5c4)n3)nc2)CC1 here?
A: 864 nM

Q: What about the IC50 (second compound 0.0316 µM) of the same molecule?
A: 378 nM

Q: And the IC50 (second compound 0.1 µM)?
A: 76.6 nM

Q: What about the IC50 (second compound 0.316 µM) of the same molecule?
A: < 31.6 nM

Q: And the IC50 (second compound 1 µM)?
A: < 31.6 nM

Q: What about the viability, T/C [1] of the same molecule?
A: 87.3%

Q: What about the viability, T/C [2] of the same molecule?
A: 77.6%

Q: And the viability, T/C (second compound 0.01 µM, first compound 0.316 µM)?
A: 66.7%

Q: And the viability, T/C (second compound 0.01 µM, first compound 1 µM)?
A: 45.7%

Q: And the viability, T/C (second compound 0.01 µM, first compound 3.16 µM)?
A: 27.5%

Q: What about the viability, T/C (second compound 0.01 µM, first compound 10 µM) of the same molecule?
A: 0.12%

Q: And the viability, T/C [3]?
A: 73.4%

Q: And the viability, T/C [4]?
A: 64.8%

Q: And the viability, T/C (second compound 0.0316 µM, first compound 0.316 µM)?
A: 51.9%

Q: What about the viability, T/C (second compound 0.0316 µM, first compound 1 µM) of the same molecule?
A: 36.4%

Q: What about the viability, T/C (second compound 0.0316 µM, first compound 3.16 µM) of the same molecule?
A: 23%

Q: What about the viability, T/C (second compound 0.0316 µM, first compound 10 µM) of the same molecule?
A: 0.11%

Q: And the viability, T/C [5]?
A: 52.6%

Q: And the viability, T/C [6]?
A: 52%

Q: And the viability, T/C (second compound 0.1 µM, first compound 0.316 µM)?
A: 40%

Q: And the viability, T/C (second compound 0.1 µM, first compound 1 µM)?
A: 30.2%

Q: And the viability, T/C (second compound 0.1 µM, first compound 3.16 µM)?
A: 20.4%

Q: And the viability, T/C (second compound 0.1 µM, first compound 10 µM)?
A: 0.87%

Q: And the viability, T/C [7]?
A: 43.4%

Q: What about the viability, T/C [8] of the same molecule?
A: 42.7%

Q: And the viability, T/C (second compound 0.316 µM, first compound 0.316 µM)?
A: 32.9%

Q: What about the viability, T/C (second compound 0.316 µM, first compound 1 µM) of the same molecule?
A: 30.5%

Q: What about the viability, T/C (second compound 0.316 µM, first compound 3.16 µM) of the same molecule?
A: 26%

Q: What about the viability, T/C (second compound 0.316 µM, first compound 10 µM) of the same molecule?
A: 0.53%

Q: What about the viability, T/C [9] of the same molecule?
A: 44.2%

Q: And the viability, T/C [10]?
A: 46.3%

Q: And the viability, T/C (second compound 1 µM, first compound 0.316 µM)?
A: 43.2%

Q: What about the viability, T/C (second compound 1 µM, first compound 1 µM) of the same molecule?
A: 38.7%

Q: And the viability, T/C (second compound 1 µM, first compound 3.16 µM)?
A: 43.6%

Q: What about the viability, T/C (second compound 1 µM, first compound 10 µM) of the same molecule?
A: 0.79%

Q: Which results are given for `Cn1ncnc1[C@H]1c2n[nH]c(=O)c3cc(F)cc(c23)N[C@@H]1c1ccc(F)cc1` + CCN1CCN(Cc2ccc(Nc3ncc(F)c(-c4cc(F)c5nc(C)n(C(C)C)c5c4)n3)nc2)CC1?
A: IC50 (second compound 0.01 µM): > 100 nM; IC50 (second compound 0.0316 µM): > 100 nM; IC50 (second compound 0.1 µM): 37.6 nM; IC50 (second compound 0.316 µM): < 0.316 nM; IC50 (second compound 1 µM): < 0.316 nM; viability, T/C (second compound 0.01 µM, first compound 0.000316 µM): 86.5%; viability, T/C (second compound 0.01 µM, first compound 0.001 µM): 85.5%; viability, T/C (second compound 0.01 µM, first compound 0.00316 µM): 79.6%; viability, T/C (second compound 0.01 µM, first compound 0.01 µM): 70.9%; viability, T/C [1]: 69.2%; viability, T/C [2]: 65.9%; viability, T/C (second compound 0.0316 µM, first compound 0.000316 µM): 74.8%; viability, T/C (second compound 0.0316 µM, first compound 0.001 µM): 72.1%; viability, T/C (second compound 0.0316 µM, first compound 0.00316 µM): 65.2%; viability, T/C (second compound 0.0316 µM, first compound 0.01 µM): 60%; viability, T/C [3]: 59.1%; viability, T/C [4]: 55%; viability, T/C (second compound 0.1 µM, first compound 0.000316 µM): 58.8%; viability, T/C (second compound 0.1 µM, first compound 0.001 µM): 56.4%; viability, T/C (second compound 0.1 µM, first compound 0.00316 µM): 51.5%; viability, T/C (second compound 0.1 µM, first compound 0.01 µM): 51.1%; viability, T/C [5]: 51.5%; viability, T/C [6]: 48.7%; viability, T/C (second compound 0.316 µM, first compound 0.000316 µM): 46.5%; viability, T/C (second compound 0.316 µM, first compound 0.001 µM): 46.6%; viability, T/C (second compound 0.316 µM, first compound 0.00316 µM): 43.9%; viability, T/C (second compound 0.316 µM, first compound 0.01 µM): 43.3%; viability, T/C [7]: 42.9%; viability, T/C [8]: 40.4%; viability, T/C (second compound 1 µM, first compound 0.000316 µM): 48%; viability, T/C (second compound 1 µM, first compound 0.001 µM): 49.3%; viability, T/C (second compound 1 µM, first compound 0.00316 µM): 50.2%; viability, T/C (second compound 1 µM, first compound 0.01 µM): 46.3%; viability, T/C [9]: 48.5%; viability, T/C [10]: 46.9%
